# What was measured:
# [1] = system: inflammation; details: applied systemically or topically; cited from earlier work
# [2] = Aerosolization of compounds added to smoking tobacco (filter capture, HPLC); type: physicochemical; details: lit cigarette, alone or mixed with erlotinib
# Excerpt: We used an experimental system that recapitulates the essential features of the act of smoking (FIG. 8). In this apparatus, smoke from the lit cigarette was drawn through the tubing of the apparatus by external suction. […] The aerosolized test drug was deposited onto this filter. At the conclusion of the study, the filter was removed and the deposited test drug was extracted with acetonitrile and subjected to HPLC analysis, as already described.
# FIG. 8. depicts the apparatus for the aerosolization of anticancer compounds. Upper panel: The test compound is added to the cigarette. […] When the system was turned on, the temperature in the heating chamber reached ˜200° C. Heating energy was provided by the battery through a resistance wire inside the heating chamber. Unimpeded flow of the gas phase in the ceramic chamber was allowed by its design; the arrows depict such flow.
# [3] = system: A549 xenografts; assay: A549 subcutaneous xenografts, PS V and curcumin; type: in vivo, female nude mice; details: for inhibition of tumor growth (in words): A549 xenografts, daily treatment to day 36; for reduction in tumor weight: end of study, vs control
# Method: Polymeric nanoparticles of poly(ε-caprolactone) (11000)-polyethylene glycol (5000) with entrapped curcumin were prepared according to the nanopercipitation-solvent displacement method. […] Then, the mice were inoculated subcutaneously on both flanks with […] cells (2×10^6 each). The treatment was resumed one day after tumor implantation and continued daily until the end of the study.
# [4] = system: lung cancer; details: pre-clinical models of lung cancer; cited from earlier work
# [5] = system: A549 human lung cancer cells; assay: A549 subcutaneous xenografts, PS V and erlotinib; type: in vivo, nude mice; details: by day 14; PS V 80 mg/kg ip, erlotinib 75 mg/kg po, 6 days/week; starting tumor volume subtracted
# Excerpt: TO this end, we inoculated A549 human lung cancer cells subcutaneously into nude mice, following standard protocols.
# [6] = Drug levels in lungs and plasma after inhalation vs oral gavage; type: in vivo, mice
# Excerpt: The oral dose was 23 times higher than the inhalational dose.
# [7] = system: NF-κB; assay: NF-κB activation in cultured cells by Electrophoretic Mobility Shift Assay (EMSA); type: cell-based, human; details: cultured A549 cells; 1-2× its IC50 concentration for 6 h
# [8] = system: NF-κB; assay: NF-κB activation in orthotopic xenografts by immunohistochemistry; type: in vivo, nude mice; details: lung tissue of orthotopic A549 xenografts, PS V treatment as in Example 1
# Method: We evaluated the effect of PS V on the activation of NF-κB, the master regulator of inflammation, in cultured A549 human lung cancer cells as well as in human lung cancer xenografts from the same cells.
# We established orthotopic xenografts in nude mice as described in Example 1. Following treatment of the mice with PS V in a similar manner, lung tissue was evaluated by immunohistochemistry, following standard protocols. We used an antibody that assesses activation of NF-κB by phosphorylation (Cell Signaling, Danvers, Mass.). FIG. 10 provides inhibitory effect of PS V on the activation of NF-κB.
# [9] = system: human cancer cells; assay: Cytotoxicity to human cancer cells; type: cell-based; details: intact PS V vs its three metabolites
# [10] = mouse, in vivo, inhaled or intranasal
# Method: (§1) After 8 min of inhalation treatment, BALB/c nude mice were euthanized at various time points. Drug levels were analyzed by HPLC in plasma and lung tissues.
# [11] = Pharmacokinetic parameters after inhalational administration (HPLC, lung and plasma); details: after 8 min inhalation of PS V
# Method: as §1
compound,measurement,setting,value
"CCOP(=O)(OCC)OCCCCOC(=O)c1ccccc1OC(C)=O [phospho-aspirin 119, phospho-aspirin]",effect on inflammation,[1],eliminated or greatly reduced inflammation
"CCOP(=O)(OCC)OCCCCNC(=O)C(C)c1ccc(CC(C)C)cc1 (stereo not drawn) [phospho-ibuprofen amide IV, phospho-ibuprofen amide]",aerosolization when added to smoking tobacco,[2],aerosolized successfully
"COc1cc(/C=C/C(=O)CC(=O)/C=C/c2ccc(O)c(OC)c2)ccc1O [curcumin, reference compound]",inhibition of tumor growth (in words),[3],ineffective
same,reduction in tumor weight,[3],not in the curcumin-treated group
same,efficacy as a single agent,[4],< 30%
"C#Cc1cccc(Nc2ncnc3cc(OCCOC)c(OCCOC)cc23)c1 [erlotinib, reference compound]",reduced tumor volume compared to controls,[5],74%
"CCOP(=O)(OCC)OCCCCOC(=O)CC1=C(C)/C(=C/c2ccc([S+](C)[O-])cc2)c2ccc(F)cc21 (stereo not drawn) [PS V, phospho-sulindac]",total drug levels (PS V plus its metabolites) in lungs,[6]; inhalation 6.5 mg/kg compared to oral 150 mg/kg,significantly higher
same,level of intact PS V in lungs,[6]; inhalational 6.5 mg/kg body weight,> 20 nmol/g
same,level of intact PS V in lungs,[6]; oral 150 mg/kg body weight,< 2 nmol/g
same,PS levels in plasma,[6]; plasma,undetectable
same,inhibition of tumor growth (in words),[3],small inhibition of tumor growth
same,average tumor volume at the end of the study,"[3]; day 36, PS V 200 mg/kg/d, curcumin 500 mg/kg/d, control 521±76 mm^3",419±36 mm^3
same,reduction in tumor weight,[3],27%
same,reduced tumor volume compared to controls,[5],49%
same,NF-κB activation (EMSA),[7],suppressed NF-κB activation
same,"activation of NF-κB (phosphorylation, immunohistochemistry)",[8],suppresses the activation of NF-κB
same,"cytotoxicity compared with sulindac, sulindac sulfide XI and sulindac sulfone XII",[9],more cytotoxic
same,effect on inflammation,[1],eliminated or greatly reduced inflammation
"CC1=C(CC(=O)O)c2cc(F)ccc2/C1=C\c1ccc(S(C)(=O)=O)cc1 [Sulindac sulfone XII, sulindac sulfone]",Cmax,[10],4.6 nmol/g
"CC1=C(CC(=O)O)c2cc(F)ccc2/C1=C\c1ccc([S+](C)[O-])cc1 (stereo not drawn) [Sulindac, sulindac]",Tmax,[11]; lung,0 h
same,Tmax,[11]; plasma,0 h

# Source: patent US20140088045A1, “PRODUCT COMPRISING A NICOTINE-CONTAINING MATERIAL AND AN ANTI-CANCER AGENT” (priority 2012, published 2014)
